Results published in PubChem BioAssay (NCI).
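96-well plates; 48 h exposure; 5 concentrations. Endpoints by linear interpolation between flanking doses. Not reached: highest tested concentration assigned. GI50 = concentration required for 50% inhibition of growth. TGI marks complete inhibition of growth.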

Tests used:
Experiment in all cases: NCI anticancer screen, dose series, 48 h
786-0 renal = test system: 786-0 renal
A498 renal = test system: A498 renal
A549 NSCLC = test system: A549 NSCLC
ACHN renal = test system: ACHN renal
BT-549 breast = test system: BT-549 breast
CAKI-1 renal = test system: CAKI-1 renal
CCRF-CEM leukemia = test system: CCRF-CEM leukemia
COLO 205 colon = test system: COLO 205 colon
DU-145 prostate = test system: DU-145 prostate
EKVX NSCLC = test system: EKVX NSCLC
HCC-2998 colon = test system: HCC-2998 colon
HCT-116 colon = test system: HCT-116 colon
HCT-15 colon = test system: HCT-15 colon
HOP-62 NSCLC = test system: HOP-62 NSCLC
HOP-92 NSCLC = test system: HOP-92 NSCLC
HS 578T breast = test system: HS 578T breast
HT29 colon = test system: HT29 colon
IGROV1 ovarian = test system: IGROV1 ovarian
KM12 colon = test system: KM12 colon
LOX IMVI melanoma = test system: LOX IMVI melanoma
M14 melanoma = test system: M14 melanoma
MALME-3M melanoma = test system: MALME-3M melanoma
MCF7 breast = test system: MCF7 breast
MDA-MB-231 breast = test system: MDA-MB-231 breast
MDA-MB-435 = test system: MDA-MB-435
MOLT-4 leukemia = test system: MOLT-4 leukemia
NCI-H226 lung = test system: NCI-H226 lung
NCI-H23 lung = test system: NCI-H23 lung
NCI-H460 lung = test system: NCI-H460 lung
NCI-H522 lung = test system: NCI-H522 lung
NCI/ADR-RES ovarian = test system: NCI/ADR-RES ovarian
OVCAR-3 ovarian = test system: OVCAR-3 ovarian
OVCAR-4 ovarian = test system: OVCAR-4 ovarian
OVCAR-5 ovarian = test system: OVCAR-5 ovarian
OVCAR-8 ovarian = test system: OVCAR-8 ovarian
PC-3 prostate = test system: PC-3 prostate
RPMI-8226 leukemia = test system: RPMI-8226 leukemia
RXF 393 renal = test system: RXF 393 renal
SF-268 CNS = test system: SF-268 CNS
SF-295 CNS = test system: SF-295 CNS
SF-539 CNS = test system: SF-539 CNS
SK-MEL-2 melanoma = test system: SK-MEL-2 melanoma
SK-MEL-28 melanoma = test system: SK-MEL-28 melanoma
SK-MEL-5 melanoma = test system: SK-MEL-5 melanoma
SK-OV-3 ovarian = test system: SK-OV-3 ovarian
SN12C renal = test system: SN12C renal
SNB-19 CNS = test system: SNB-19 CNS
SNB-75 CNS = test system: SNB-75 CNS
SW-620 colon = test system: SW-620 colon
T-47D breast = test system: T-47D breast
TK-10 renal = test system: TK-10 renal
U251 CNS = test system: U251 CNS
UACC-257 melanoma = test system: UACC-257 melanoma
UACC-62 melanoma = test system: UACC-62 melanoma
UO-31 renal = test system: UO-31 renal
HL-60(TB) leukemia = test system: HL-60(TB) leukemia
K-562 leukemia = test system: K-562 leukemia
SR leukemia = test system: SR leukemia

## C=C(CNCCc1ccc(O)cc1)[C@@H]1CC[C@]2(CO)CC[C@]3(C)[C@H](CC[C@@H]4[C@@]5(C)CCC(NCCO)C(C)(C)[C@@H]5CC[C@]43C)[C@@H]12 (stereo partly specified)
786-0 renal
  GI50: 1.25 µM
  TGI: 2.58 µM
A498 renal
  GI50: 1.72 µM
  TGI: 3.72 µM
A549 NSCLC
  GI50: 1.7 µM
  TGI: 3.12 µM
ACHN renal
  GI50: 1.79 µM
  TGI: 3.2 µM
BT-549 breast
  GI50: 1.5 µM
  TGI: 3.15 µM
CAKI-1 renal
  GI50: 1.65 µM
  TGI: 3.29 µM
CCRF-CEM leukemia
  GI50: 0.433 µM
  TGI: 1.92 µM
COLO 205 colon
  GI50: 1.54 µM
  TGI: 3.13 µM
DU-145 prostate
  GI50: 1.6 µM
  TGI: 3.04 µM
EKVX NSCLC
  GI50: 1.6 µM
  TGI: 3.41 µM
HCC-2998 colon
  GI50: 1.57 µM
  TGI: 3.21 µM
HCT-116 colon
  GI50: 0.351 µM
  TGI: 1.19 µM
HCT-15 colon
  GI50: 1.57 µM
  TGI: 3.37 µM
HOP-62 NSCLC
  GI50: 1.64 µM
  TGI: 3.23 µM
HOP-92 NSCLC
  GI50: 1.09 µM
  TGI: 2.41 µM
HS 578T breast
  GI50: 1.69 µM
  TGI: 3.85 µM
HT29 colon
  GI50: 0.395 µM
  TGI: 1.57 µM
IGROV1 ovarian
  GI50: 1.94 µM
  TGI: 3.9 µM
KM12 colon
  GI50: 1.66 µM
  TGI: 3.16 µM
LOX IMVI melanoma
  GI50: 1.39 µM
  TGI: 2.88 µM
M14 melanoma
  GI50: 1.61 µM
  TGI: 3.13 µM
MALME-3M melanoma
  GI50: 1.54 µM
  TGI: 3.08 µM
MCF7 breast
  GI50: 0.4 µM
  TGI: 1.76 µM
MDA-MB-231 breast
  GI50: 1.33 µM
  TGI: 2.74 µM
MDA-MB-435
  GI50: 1.51 µM
  TGI: 2.97 µM
MOLT-4 leukemia
  GI50: 0.657 µM
  TGI: 2.92 µM
NCI-H226 lung
  GI50: 2 µM
  TGI: 4.31 µM
NCI-H23 lung
  GI50: 1.78 µM
  TGI: 3.49 µM
NCI-H460 lung
  GI50: 1.75 µM
  TGI: 3.29 µM
NCI-H522 lung
  GI50: 1.81 µM
  TGI: 3.56 µM
NCI/ADR-RES ovarian
  GI50: 2.09 µM
  TGI: 4.88 µM
OVCAR-3 ovarian
  GI50: 1.73 µM
  TGI: 3.51 µM
OVCAR-4 ovarian
  GI50: 1.4 µM
  TGI: 3.17 µM
OVCAR-5 ovarian
  GI50: 1.67 µM
  TGI: 3.31 µM
OVCAR-8 ovarian
  GI50: 1.79 µM
  TGI: 3.22 µM
PC-3 prostate
  GI50: 1.6 µM
  TGI: 3.29 µM
RPMI-8226 leukemia
  GI50: 1.43 µM
  TGI: 4 µM
RXF 393 renal
  GI50: 1.27 µM
  TGI: 2.63 µM
SF-268 CNS
  GI50: 1.57 µM
  TGI: 3.23 µM
SF-295 CNS
  GI50: 1.72 µM
  TGI: 3.34 µM
SF-539 CNS
  GI50: 1.5 µM
  TGI: 2.87 µM
SK-MEL-2 melanoma
  GI50: 1.79 µM
  TGI: 3.38 µM
SK-MEL-28 melanoma
  GI50: 1.81 µM
  TGI: 3.38 µM
SK-MEL-5 melanoma
  GI50: 1.73 µM
  TGI: 3.21 µM
SK-OV-3 ovarian
  GI50: 1.85 µM
  TGI: 3.52 µM
SN12C renal
  GI50: 1.75 µM
  TGI: 3.25 µM
SNB-19 CNS
  GI50: 1.63 µM
  TGI: 3.03 µM
SNB-75 CNS
  GI50: 1.24 µM
  TGI: 2.52 µM
SW-620 colon
  GI50: 1.27 µM
  TGI: 2.68 µM
T-47D breast
  GI50: 1.79 µM
  TGI: 3.96 µM
TK-10 renal
  GI50: 1.7 µM
  TGI: 3.14 µM
U251 CNS
  GI50: 1.06 µM
  TGI: 2.24 µM
UACC-257 melanoma
  GI50: 1.86 µM
  TGI: 3.27 µM
UACC-62 melanoma
  GI50: 1.79 µM
  TGI: 3.3 µM
UO-31 renal
  GI50: 1.47 µM
  TGI: 2.86 µM

## CN(C)c1ccc(C=Nc2ccc(-c3nc4ccccc4o3)cc2)cc1
786-0 renal
  TGI: > 100 µM
A498 renal
  TGI: > 100 µM
A549 NSCLC
  TGI: > 100 µM
ACHN renal
  TGI: > 100 µM
BT-549 breast
  TGI: > 100 µM
COLO 205 colon
  TGI: > 100 µM
DU-145 prostate
  TGI: > 100 µM
EKVX NSCLC
  TGI: 87.1 µM
HCC-2998 colon
  TGI: 47.3 µM
HCT-116 colon
  TGI: > 100 µM
HCT-15 colon
  TGI: > 100 µM
HL-60(TB) leukemia
  TGI: 69.1 µM
HOP-62 NSCLC
  TGI: > 100 µM
HOP-92 NSCLC
  TGI: > 100 µM
HS 578T breast
  TGI: > 100 µM
HT29 colon
  TGI: > 100 µM
IGROV1 ovarian
  TGI: > 100 µM
K-562 leukemia
  TGI: > 100 µM
KM12 colon
  TGI: > 100 µM
LOX IMVI melanoma
  TGI: > 100 µM
M14 melanoma
  TGI: > 100 µM
MALME-3M melanoma
  TGI: > 100 µM
MCF7 breast
  TGI: > 100 µM
MDA-MB-231 breast
  TGI: > 100 µM
MDA-MB-435
  TGI: > 100 µM
MOLT-4 leukemia
  TGI: 78.8 µM
NCI-H23 lung
  TGI: > 100 µM
NCI-H460 lung
  TGI: 98.7 µM
NCI-H522 lung
  TGI: > 100 µM
NCI/ADR-RES ovarian
  TGI: > 100 µM
OVCAR-3 ovarian
  TGI: 51.4 µM
OVCAR-4 ovarian
  TGI: > 100 µM
OVCAR-5 ovarian
  TGI: > 100 µM
OVCAR-8 ovarian
  TGI: > 100 µM
PC-3 prostate
  TGI: 97.9 µM
SF-268 CNS
  TGI: > 100 µM
SF-539 CNS
  TGI: > 100 µM
SK-MEL-2 melanoma
  TGI: 83.1 µM
SK-MEL-28 melanoma
  TGI: > 100 µM
SK-MEL-5 melanoma
  TGI: 29.8 µM
SK-OV-3 ovarian
  TGI: > 100 µM
SN12C renal
  TGI: > 100 µM
SNB-19 CNS
  TGI: > 100 µM
SNB-75 CNS
  TGI: > 100 µM
SR leukemia
  TGI: > 100 µM
SW-620 colon
  TGI: > 100 µM
T-47D breast
  TGI: 58.3 µM
TK-10 renal
  TGI: > 100 µM
U251 CNS
  TGI: > 100 µM
UACC-257 melanoma
  TGI: 72.5 µM
UACC-62 melanoma
  TGI: > 100 µM
UO-31 renal
  TGI: > 100 µM

## COc1ccc([N+](=O)[O-])cc1[I+]c1cc([N+](=O)[O-])ccc1OC
786-0 renal
  TGI: > 100 µM
A498 renal
  TGI: > 100 µM
A549 NSCLC
  TGI: > 100 µM
ACHN renal
  TGI: > 100 µM
BT-549 breast
  TGI: > 100 µM
CAKI-1 renal
  TGI: > 100 µM
CCRF-CEM leukemia
  TGI: > 100 µM
COLO 205 colon
  TGI: > 100 µM
DU-145 prostate
  TGI: > 100 µM
EKVX NSCLC
  TGI: > 100 µM
HCC-2998 colon
  TGI: > 100 µM
HCT-116 colon
  TGI: > 100 µM
HCT-15 colon
  TGI: > 100 µM
HL-60(TB) leukemia
  TGI: 97.6 µM
HOP-62 NSCLC
  TGI: > 100 µM
HS 578T breast
  TGI: > 100 µM
HT29 colon
  TGI: > 100 µM
IGROV1 ovarian
  TGI: > 100 µM
K-562 leukemia
  TGI: > 100 µM
KM12 colon
  TGI: 94.7 µM
LOX IMVI melanoma
  TGI: 73.1 µM
M14 melanoma
  TGI: > 100 µM
MALME-3M melanoma
  TGI: 17.1 µM
MCF7 breast
  TGI: > 100 µM
MDA-MB-231 breast
  TGI: > 100 µM
MDA-MB-435
  TGI: 49.3 µM
NCI-H226 lung
  TGI: > 100 µM
NCI-H23 lung
  TGI: > 100 µM
NCI-H460 lung
  TGI: 80.3 µM
NCI-H522 lung
  TGI: > 100 µM
NCI/ADR-RES ovarian
  TGI: > 100 µM
OVCAR-3 ovarian
  TGI: > 100 µM
OVCAR-5 ovarian
  TGI: > 100 µM
OVCAR-8 ovarian
  TGI: > 100 µM
PC-3 prostate
  TGI: > 100 µM
RPMI-8226 leukemia
  TGI: > 100 µM
RXF 393 renal
  TGI: > 100 µM
SF-268 CNS
  TGI: > 100 µM
SF-295 CNS
  TGI: > 100 µM
SF-539 CNS
  TGI: > 100 µM
SK-MEL-2 melanoma
  TGI: > 100 µM
SK-MEL-28 melanoma
  TGI: 21.8 µM
SK-MEL-5 melanoma
  TGI: 24.9 µM
SK-OV-3 ovarian
  TGI: 82.3 µM
SN12C renal
  TGI: > 100 µM
SNB-19 CNS
  TGI: > 100 µM
SR leukemia
  TGI: 26.7 µM
SW-620 colon
  TGI: > 100 µM
T-47D breast
  TGI: > 100 µM
TK-10 renal
  TGI: > 100 µM
U251 CNS
  TGI: 34.2 µM
UACC-257 melanoma
  TGI: > 100 µM
UACC-62 melanoma
  TGI: 94.8 µM
UO-31 renal
  TGI: > 100 µM
